Source: ChEMBL document CHEMBL3627699, “Design, synthesis and biological evaluation of 3-aryl-rhodanine benzoic acids as anti-apoptotic protein Bcl-2 inhibitors” (Bioorg Med Chem Lett, 2015)

How the values were obtained:
[1] = molecular target: T1, Apoptosis regulator Bcl-2 (Homo sapiens, UniProt P10415); assay: Inhibition of Bcl-2 (unknown origin) by fluorescence polarization assay
[2] = molecular target: Induced myeloid leukemia cell differentiation protein Mcl-1 (Homo sapiens, UniProt Q07820); assay: Inhibition of Mcl-1 (unknown origin) by fluorescence polarization assay
[3] = molecular target: Bcl-2-like protein 1 (Homo sapiens, UniProt Q07817); assay: Inhibition of Bcl-xL (unknown origin) by fluorescence polarization assay
[4] = molecular target: T1, Apoptosis regulator Bcl-2; assay: Inhibition of Bcl-2 (unknown origin) at 100 uM by fluorescence polarization assay
[5] = system: PC-3; assay: Antiproliferative activity against human PC3 cells by MTT assay; format: functional, cell-based
[6] = system: MDA-MB-231; assay: Antiproliferative activity against human MDA-MB-231 cells by MTT assay; format: functional, cell-based
[7] = system: K562; assay: Antiproliferative activity against human K562 cells by MTT assay; format: functional, cell-based

Sequence of Bcl-2-like protein 1 (Q07817 whole entry): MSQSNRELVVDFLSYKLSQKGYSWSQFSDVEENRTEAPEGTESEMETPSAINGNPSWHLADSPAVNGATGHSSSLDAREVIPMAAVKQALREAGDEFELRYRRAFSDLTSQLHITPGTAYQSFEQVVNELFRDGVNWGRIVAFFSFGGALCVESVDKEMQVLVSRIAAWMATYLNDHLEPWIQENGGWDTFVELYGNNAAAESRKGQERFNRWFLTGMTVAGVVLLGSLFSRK
T1 sequence (P10415 whole entry): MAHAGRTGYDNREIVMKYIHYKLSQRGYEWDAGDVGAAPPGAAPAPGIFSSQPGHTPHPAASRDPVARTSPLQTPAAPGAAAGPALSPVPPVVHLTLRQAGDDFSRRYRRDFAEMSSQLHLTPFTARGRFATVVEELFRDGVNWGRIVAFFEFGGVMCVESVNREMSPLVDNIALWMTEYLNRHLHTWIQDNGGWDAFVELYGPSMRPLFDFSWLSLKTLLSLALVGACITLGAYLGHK
Sequence of Induced myeloid leukemia cell differentiation protein Mcl-1 (Q07820 whole entry): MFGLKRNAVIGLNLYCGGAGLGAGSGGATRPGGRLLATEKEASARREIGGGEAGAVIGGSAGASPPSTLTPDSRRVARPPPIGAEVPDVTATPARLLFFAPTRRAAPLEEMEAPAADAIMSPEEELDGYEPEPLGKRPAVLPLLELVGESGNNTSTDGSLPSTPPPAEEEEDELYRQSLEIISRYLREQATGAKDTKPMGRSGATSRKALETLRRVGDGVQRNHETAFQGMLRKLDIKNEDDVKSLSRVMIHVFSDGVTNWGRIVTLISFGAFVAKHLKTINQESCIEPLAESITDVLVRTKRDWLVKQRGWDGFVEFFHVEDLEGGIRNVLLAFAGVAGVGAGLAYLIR

Compound | Ki [1] [µM] | other results
O=C(COc1ccc(/C=C2\SC(=S)N(c3ccc([N+](=O)[O-])cc3)C2=O)cc1)Nc1ccc(C(=O)O)cc1 | > 10 | 
O=C(COc1ccc(/C=C2\SC(=S)N(c3ccccc3)C2=O)cc1)Nc1ccc(C(=O)O)cc1 | > 10 | 
O=C(Nc1ccc(O)c(C(=O)O)c1)c1ccc(/C=C2\SC(=S)N(c3ccc([N+](=O)[O-])cc3)C2=O)cc1 | > 10 | 
O=C(O)c1ccc(COc2ccc(/C=C3\SC(=S)N(c4ccc([N+](=O)[O-])cc4)C3=O)cc2)cc1 | > 10 | 
O=C(Nc1ccc(O)c(C(=O)O)c1)c1ccc(/C=C2\SC(=S)N(c3ccccc3)C2=O)cc1 | > 10 | 
Cc1cc2c(C(C)C)c(O)c(O)c(C=O)c2c(O)c1-c1c(C)cc2c(C(C)C)c(O)c(O)c(C=O)c2c1O [GOSSYPOL] |  | IC50 [5]: 5.61 µM; IC50 [6]: 4.8 µM; Ki [2]: 310 nM; Ki [3]: 0.64 µM; IC50 [7]: 7.31 µM
O=C(O)c1ccc(COc2ccc(/C=C3\SC(=S)N(c4ccc(F)cc4)C3=O)cc2)cc1 | > 10 | 
Cc1ccccc1N1C(=O)/C(=C/c2ccc(OCC(=O)Nc3ccc(C(=O)O)cc3)cc2)SC1=S | > 10 | 
Cc1ccc(N2C(=O)/C(=C/c3ccc(OCc4ccc(C(=O)O)cc4)cc3)SC2=S)cc1 | > 10 | 
O=C(O)c1ccc(COc2ccc(/C=C3\SC(=S)N(c4ccc(Cl)cc4)C3=O)cc2)cc1 | > 10 | 
Cc1cccc(N2C(=O)/C(=C/c3ccc(OCC(=O)Nc4ccc(C(=O)O)cc4)cc3)SC2=S)c1 | > 10 | 
COc1ccc(N2C(=O)/C(=C/c3ccc(OCc4ccc(C(=O)O)cc4)cc3)SC2=S)cc1 | > 10 | 
O=C(O)c1ccc(COc2ccc(/C=C3\SC(=S)N(c4ccccc4)C3=O)cc2)cc1 | > 10 | 
O=C(O)c1ccc(COc2cccc(/C=C3\SC(=S)N(c4ccccc4)C3=O)c2)cc1 | > 10 | 
O=C(O)c1ccc(COc2ccc(/C=C3\SC(=S)N(Cc4ccc(F)cc4)C3=O)cc2)cc1 | > 10 | 

Second part, led by results:

Ki [1] [µM] | Compound | other results
> 10 | O=C(O)c1ccc(COc2cccc(/C=C3\SC(=S)N(c4ccc([N+](=O)[O-])cc4)C3=O)c2)cc1 | 
> 10 | CC(=O)c1ccc(N2C(=O)/C(=C/c3ccc(OCc4ccc(C(=O)O)cc4)cc3)SC2=S)cc1 | 
4.3 | O=C(O)c1ccc(COc2ccc(/C=C3\SC(=S)N(c4ccc(I)cc4)C3=O)cc2)cc1 | Ki [2]: 1600 nM; Ki [3]: > 10 µM
> 10 | O=C(O)c1ccc(COc2ccc(/C=C3\SC(=S)N(c4c(F)cccc4F)C3=O)cc2)cc1 | 
> 10 | Cc1ccc(N2C(=O)/C(=C/c3ccc(OCC(=O)Nc4ccc(C(=O)O)cc4)cc3)SC2=S)cc1 | 
9.6 | O=C(O)c1ccc(COc2ccc(/C=C3\SC(=S)N(c4cccc([N+](=O)[O-])c4)C3=O)cc2)cc1 | 
> 10 | O=C(O)c1ccc(COc2ccc(/C=C3\SC(=S)N(c4cccc(C(F)(F)F)c4)C3=O)cc2)cc1 | 
> 10 | O=C(O)c1ccc(/C=C2\SC(=S)N(c3ccccc3)C2=O)cc1 | inhibition [4]: 18%
> 10 | Cc1cccc(N2C(=O)/C(=C/c3ccc(OCc4ccc(C(=O)O)cc4)cc3)SC2=S)c1 | 
10 | COc1ccccc1N1C(=O)/C(=C/c2ccc(OCC(=O)Nc3ccc(C(=O)O)cc3)cc2)SC1=S | 
3.1 | Cc1ccccc1N1C(=O)/C(=C/c2cccc(OCc3ccc(C(=O)O)cc3)c2)SC1=S | Ki [2]: 3200 nM; Ki [3]: > 10 µM
1.6 | COc1ccccc1N1C(=O)/C(=C/c2cccc(OCc3ccc(C(=O)O)cc3)c2)SC1=S | Ki [2]: 3700 nM; Ki [3]: > 10 µM
0.61 | O=C(O)c1ccc(COc2ccc(/C=C3\SC(=S)N(c4ccc(Br)cc4)C3=O)cc2)cc1 | IC50 [5]: 18.9 µM; IC50 [6]: 19.8 µM; Ki [2]: 700 nM; Ki [3]: > 10 µM; IC50 [7]: 43.8 µM
7.6 | Cc1cccc(C)c1N1C(=O)/C(=C/c2ccc(OCC(=O)Nc3ccc(C(=O)O)cc3)cc2)SC1=S | 
0.5 | Cc1ccc(S(=O)(=O)NC(=O)[C@H](Cc2ccccc2)N2C(=O)/C(=C/c3ccc(-c4ccccc4)cc3)SC2=S)cc1 | IC50 [5]: > 30 µM; IC50 [6]: > 30 µM; Ki [2]: 290 nM; Ki [3]: 0.57 µM; IC50 [7]: 32.8 µM
3.1 | O=C(O)c1ccc([N+](=O)[O-])c(COc2ccc(/C=C3\SC(=S)N(c4ccc([N+](=O)[O-])cc4)C3=O)cc2)c1 | 
2 | COc1ccccc1N1C(=O)/C(=C/c2ccc(OCc3ccc(C(=O)O)cc3)cc2)SC1=S | Ki [2]: 3900 nM; Ki [3]: > 10 µM
9 | O=C(O)c1ccc([N+](=O)[O-])c(COc2ccc(/C=C3\SC(=S)N(c4ccccc4)C3=O)cc2)c1 | 
0.9 | Cc1cccc(C)c1N1C(=O)/C(=C/c2ccc(OCc3ccc(C(=O)O)cc3)cc2)SC1=S | IC50 [5]: 25.8 µM; IC50 [6]: 25.6 µM; Ki [2]: 720 nM; Ki [3]: 3.9 µM; IC50 [7]: 46.6 µM
